Measurements reported in ChEMBL document CHEMBL1156714, “Microwave induced synthesis of novel 8,9-dihydro-7H-pyrimido[4,5-b][1,4]diazepines as potential antitumor agents” (2008).

How the values were obtained:
Assay type in all cases: functional
U-251 = assay: Growth inhibition of human U251 cells after 48 hrs by SRB assay; details: U-251, 48 h
MDA-MB-231 = assay: Growth inhibition of human MDA-MB-231 cells after 48 hrs by SRB assay; details: MDA-MB-231, 48 h
MDA-MB-435 = assay: Growth inhibition of human MDA-MB-435 cells after 48 hrs by SRB assay; details: MDA-MB-435, 48 h
SK-MEL-5 = assay: Growth inhibition of human SK-MEL-5 cells after 48 hrs by SRB assay; details: SK-MEL-5, 48 h
KM12 = assay: Growth inhibition of human KM12 cells after 48 hrs by SRB assay; details: KM12, 48 h
MOLT-4 = assay: Growth inhibition of human MOLT4 cells after 48 hrs by SRB assay; details: MOLT-4, 48 h
[1] = read-out: LC50 (the source's name)

## Cc1ccc(C2=Nc3c(N)ncnc3NC(c3ccc4c(c3)OCO4)C2)cc1 (racemic)
U-251
  GI50: 4.55 µM
U-251; [1]
  CC50: 44.5 µM
MDA-MB-231
  GI50: 4.37 µM
MDA-MB-231; [1]
  CC50: 55.6 µM
MDA-MB-435
  GI50: 1.15 µM
MDA-MB-435; [1]
  CC50: 90.8 µM
SK-MEL-5
  GI50: 3.85 µM
SK-MEL-5; [1]
  CC50: > 100 µM
KM12
  GI50: 3.79 µM
KM12; [1]
  CC50: 75.1 µM
MOLT-4
  GI50: 2.66 µM
MOLT-4; [1]
  CC50: > 100 µM
